Drawing on paper PMC10138723, “Cytotoxic Steroidal Saponins Containing a Rare Fructosyl from the Rhizomes of Paris polyphylla var. latifolia” (International Journal of Molecular Sciences, 2023), this text covers IC50 for 12 compounds.

Common to all, as to type: cell-based
In test [1] the test system is LN229 (human glioma cells). Kind of test: CCK-8 cytotoxic assay, LN229. The settings on record: read-out: IC50 ± SD, LN229. The source says:
(§1) U251 (human glioma cells), HeLa (human cervical cancer cells), and HepG2 (human hepatic cancer cells) were purchased from the Chinese Academy of Sciences (China), and Capan-2 (human pancreatic cancer cells) were obtained from Nanjing Cobioer Biosicences (Nanjing, China). American Type Culture Collection (ATCC) provided LN229 (human glioma cells). NHA (Gibco Human Astrocytes) and Gibco Astrocyte Medium (DMEM, N-2 Supplement, One Shot fetal bovine serum) were purchased from ThermoFisher Scientific (Waltham, MA, USA). The LN229, U251, HepG2 and HeLa cells were cultured in DMEM (Procell, Wuhan, China). The Capan-2 cells were cultured in RPMI-1640 (Procell, Wuhan, China) and NHA cells were cultured in Gibco Astrocyte Medium, supplemented with 10% FBS (Solarbio, Beijing, China) and 1% Penicillin–Streptomycin (Elabscience Biotechnology Co.,Ltd, Wuhan, China) at 37 °C with 5% CO2.
(§2) In the exponential phase of the growth, five tumor cell lines and one normal human astrocytes were plated onto 96-well plates at a concentration of 8000 cells/well for 24 h. Compounds 1–12 were prepared to various concentrations (64, 32, 16, 8, 4, 2, 1 and 0.5 µM in medium containing less than 0.1% DMSO) and incubated in 96-well plates (each concentration in four-fold wells) for 24 h. Cell viability was determined according to reported assay methods using the commercial CCK-8 kit (Elabscience Biotechnology Co., Ltd., Wuhan, China). The optical density (OD) of each well was measured with an AMR-100 microplate reader at 450 nm (Allsheng Corporation, Hangzhou, China). Cytotoxicity emerged as the value of the drug concentration at the inhibition of cell growth by 50% (IC50). The experiments were conducted for three independent replicates, and Doxorubicin was used as the positive control.
For orientation: Tetrazolium assays rely on reduction of a dye to a coloured formazan, in cell work by metabolically active cells.

Test [2] relates to U251 (human glioma cells). As to the kind of experiment: CCK-8 cytotoxic assay, U251. The settings on record: read-out: IC50 ± SD, U251.
Description: as §1, §2

The test system of test [3] is Capan-2 (human pancreatic cancer cells). As to the kind of experiment: CCK-8 cytotoxic assay, Capan-2. The following applies: read-out: IC50 ± SD, Capan-2.
Description: as §1, §2

Test [4] deals with HeLa (human cervical cancer cells). Kind of test: CCK-8 cytotoxic assay, HeLa. The following applies: read-out: IC50 ± SD, HeLa.
Description: as §1, §2

For test [5], the system named is HepG2 (human hepatic cancer cells). As to the kind of experiment: CCK-8 cytotoxic assay, HepG2. The settings on record: read-out: IC50 ± SD, HepG2.
Description: as §1, §2

In test [6] the test system is NHA (normal human astrocytes). As to the kind of experiment: CCK-8 cytotoxic assay, NHA normal astrocytes. The settings on record: Astrocyte, read-out: IC50 ± SD, NHA.
Description: as §1, §2

The subject of test [7] is five cancer cell lines (LN229, U251, Capan-2, HeLa, HepG2). As to the kind of experiment: CCK-8 cytotoxic assay, summary over five cancer cell lines. The settings on record: Homo sapiens, range over compounds 1 and 2 and five cancer cell lines, read-out: IC50 values (range) against five cancer cell lines.
Description: as §1
In the exponential phase of the growth, five tumor cell lines and one normal human astrocytes were plated onto 96-well plates at a concentration of 8000 cells/well for 24 h. […] Cell viability was determined according to reported assay methods using the commercial CCK-8 kit (Elabscience Biotechnology Co., Ltd., Wuhan, China). The optical density (OD) of each well was measured with an AMR-100 microplate reader at 450 nm (Allsheng Corporation, Hangzhou, China). […]

[8] abbreviates: LN-229, LN229 cells, CCK-8, 24 h.
The mark [9] stands for this setting: NHA normal human astrocytes, CCK-8, 24 h.

For orientation: IC50 means the midpoint of a concentration-inhibition curve.

Where two headings read alike, the source gives them in different places.

For `C=C1C(=O)OC2CC3C4CC=C5CC(OC6OC(CO)C(OC7OC(C)C(O)C(O)C7O)C(O)C6OC6OC(C)C(O)C(O)C6O)CCC5(C)C4CCC3(C)C12` (stereo not shown) [Compound 5, chonglouoside SL-8], the IC50 is over 50 µM in test [1] (setting [8]); over 50 µM in test [2] (U-251, U251 cells, CCK-8, 24 h); over 50 µM in test [3] (Capan-2 cells, CCK-8, 24 h); over 50 µM in test [4] (HeLa cells, CCK-8, 24 h); over 50 µM in test [5] (HepG2 cells, CCK-8, 24 h); over 50 µM in test [6] (setting [9]).

For `CC1CCC2(OC1)OC1CC3C4CC=C5CC(OC6OC(COC7(CO)OC(CO)C(O)C7O)C(OC7OC(CO)C(O)C7O)C(O)C6OC6OC(C)C(O)C(O)C6O)CCC5(C)C4CCC3(C)C1C2C` [Compound 2, diosgenin-3-O-β-D-fructofuranosyl-(1 → 6)-[α-L-arabinofuranosyl-(1→4)]-[α-L-rhamnopyranosyl-(1→2)]-β-D-glucopyranoside], the concentration for half-maximal inhibition (IC50) was 15.4 ± 0.47 µM in test [1] (setting [8]); 15.8 ± 0.65 µM in test [2] (U-251, U251 cells, CCK-8, 24 h); 20.4 ± 1.05 µM in test [3] (Capan-2 cells, CCK-8, 24 h); 22.3 ± 1.33 µM in test [4] (HeLa cells, CCK-8, 24 h); 18.8 ± 1.25 µM in test [5] (HepG2 cells, CCK-8, 24 h); over 50 µM in test [6] (setting [9]). Further, the IC50 in test [7] was in the range of 3.26 to 22.3 µM.

Turning to `Cc1c(CCC(C)COC2OC(CO)C(O)C(O)C2O)ccc2c1C1(C)CCC3C(CC=C4CC(OC5OC(CO)C(OC6OC(CO)C(O)C6O)C(O)C5OC5OC(C)C(O)C(O)C5O)CCC43C)C1C2` [Compound 8, 3-O-α-L-arabinofuranosyl-(1 → 4)-[α-L-rhamnopyranosyl (1 → 2)]-β-D-glucopyranosyl-β-D-chacotriosyl-26-O-β-D-glucopyranoside], the half-maximal inhibitory concentration (IC50) in test [1] (setting [8]) is over 50 µM; in test [2] (U-251, U251 cells, CCK-8, 24 h), over 50 µM; in test [3] (Capan-2 cells, CCK-8, 24 h), over 50 µM; in test [4] (HeLa cells, CCK-8, 24 h), over 50 µM; in test [5] (HepG2 cells, CCK-8, 24 h), over 50 µM; in test [6] (setting [9]) it was over 50 µM.

Regarding `COc1cccc2c1C(=O)c1c(O)c3c(c(O)c1C2=O)C[C@@](O)(C(=O)CO)C[C@@H]3O[C@H]1C[C@H](N)[C@H](O)[C@H](C)O1` [Doxorubicin, reference compound], the IC50 was 0.35 ± 0.05 µM in test [1] (setting [8]); 0.21 ± 0.04 µM in test [2] (U-251, U251 cells, CCK-8, 24 h); 0.18 ± 0.02 µM in test [3] (Capan-2 cells, CCK-8, 24 h); 0.18 ± 0.02 µM in test [4] (HeLa cells, CCK-8, 24 h); 0.21 ± 0.02 µM in test [5] (HepG2 cells, CCK-8, 24 h); over 50 µM in test [6] (setting [9]).

`Cc1c(CCC(C)COC2OC(CO)C(O)C(O)C2O)ccc2c1C1(C)CCC3C(CC=C4CC(OC5OC(CO)C(O)C(O)C5OC5OC(C)C(O)C(O)C5O)CCC43C)C1C2` (stereo not shown) [Compound 12, parispseudoside B]: the half-maximal inhibitory concentration (IC50) in test [1] (setting [8]) was over 50 µM; in test [2] (U-251, U251 cells, CCK-8, 24 h), over 50 µM; in test [3] (Capan-2 cells, CCK-8, 24 h), over 50 µM; in test [4] (HeLa cells, CCK-8, 24 h), over 50 µM; in test [5] (HepG2 cells, CCK-8, 24 h), over 50 µM; in test [6] (setting [9]) it was over 50 µM.

As to `Cc1c(CCC(C)COC2OC(CO)C(O)C(O)C2O)ccc2c1C1(C)CCC3C(CC=C4CC(OC5OC(CO)C(OC6OC(C)C(O)C(O)C6O)C(O)C5OC5OC(C)C(O)C(O)C5O)CCC43C)C1C2` (stereo not shown) [Compound 9, aethioside A], the half-maximal inhibitory concentration (IC50) in test [1] (setting [8]) was over 50 µM; in test [2] (U-251, U251 cells, CCK-8, 24 h), over 50 µM; in test [3] (Capan-2 cells, CCK-8, 24 h) it was over 50 µM; in test [4] (HeLa cells, CCK-8, 24 h), over 50 µM; in test [5] (HepG2 cells, CCK-8, 24 h), over 50 µM; in test [6] (setting [9]) it was over 50 µM.

Consider `Cc1c(CCC(C)COC2OC(CO)C(O)C(O)C2O)ccc2c1C1(C)CCC3C(CC=C4CC(OC5OC(CO)C(OC6OC(C)C(OC7OC(C)C(O)C(O)C7O)C(O)C6O)C(O)C5OC5OC(C)C(O)C(O)C5O)CCC43C)C1C2` (stereo not shown) [Compound 7, parispseudoside A], for which the concentration for half-maximal inhibition (IC50) was over 50 µM in test [1] (setting [8]); over 50 µM in test [2] (U-251, U251 cells, CCK-8, 24 h); over 50 µM in test [3] (Capan-2 cells, CCK-8, 24 h); over 50 µM in test [4] (HeLa cells, CCK-8, 24 h); over 50 µM in test [5] (HepG2 cells, CCK-8, 24 h); over 50 µM in test [6] (setting [9]).

In the case of `C=C1C(=O)OC2CC3C4CC=C5CC(OC6OC(CO)C(O)C(O)C6OC6OC(C)C(O)C(O)C6O)CCC5(C)C4CCC3(C)C12` (stereo not shown) [Compound 6, pallidifloside D], the IC50 is over 50 µM in test [1] (LN-229, 24 h); over 50 µM in test [2] (U-251, 24 h); over 50 µM in test [3] (Capan-2, 24 h); over 50 µM in test [4] (HeLa, 24 h); over 50 µM in test [5] (HepG2, 24 h); over 50 µM in test [6] (Homo sapiens, 24 h).

On to `CC(=O)C1=CC[C@H]2[C@@H]3CC=C4C[C@@H](O[C@@H]5O[C@H](CO)[C@@H](O[C@@H]6O[C@@H](C)[C@H](O)[C@@H](O)[C@H]6O)[C@H](O)[C@H]5O[C@@H]5O[C@@H](C)[C@H](O)[C@@H](O)[C@H]5O)CC[C@]4(C)[C@H]3CC[C@]12C` [Compound 11, hypoglaucin H], for which the IC50 in test [1] (setting [8]) is over 50 µM; in test [2] (U-251, U251 cells, CCK-8, 24 h) it was over 50 µM; in test [3] (Capan-2 cells, CCK-8, 24 h) it was over 50 µM; in test [4] (HeLa cells, CCK-8, 24 h) it was over 50 µM; in test [5] (HepG2 cells, CCK-8, 24 h), over 50 µM; in test [6] (setting [9]) it was over 50 µM.

In the case of `C=C1C(=O)OC2CC3C4CC=C5CC(OC6OC(CO)C(OC7OC(CO)C(O)C7O)C(O)C6OC6OC(C)C(O)C(O)C6O)CCC5(C)C4CCC3(C)C12` (stereo not shown) [Compound 3], the IC50 in test [1] (setting [8]) is over 50 µM; in test [2] (U-251, U251 cells, CCK-8, 24 h) it was over 50 µM; in test [3] (Capan-2 cells, CCK-8, 24 h), over 50 µM; in test [4] (HeLa cells, CCK-8, 24 h) it was over 50 µM; in test [5] (HepG2 cells, CCK-8, 24 h), over 50 µM; in test [6] (setting [9]), over 50 µM.

`CC(=O)C1=CCC2C3CC=C4C[C@@H](O[C@@H]5O[C@H](CO)[C@@H](O[C@@H]6O[C@@H](CO)[C@H](O)[C@H]6O)[C@H](O)[C@H]5O[C@@H]5O[C@@H](C)[C@H](O)[C@@H](O)[C@H]5O)CC[C@]4(C)C3CC[C@]12C` (stereo partly drawn) [Compound 4, pregna-5,16-diene-3β-ol-20-one-3-O-α-L-arabinofuranosyl-(1 → 4)-[α-L-rhamnopyranosyl(1 → 2)]-β-D-glucopyranoside]: the IC50 in test [1] (setting [8]) is over 50 µM; in test [2] (U-251, U251 cells, CCK-8, 24 h) it was over 50 µM; in test [3] (Capan-2 cells, CCK-8, 24 h), over 50 µM; in test [4] (HeLa cells, CCK-8, 24 h), over 50 µM; in test [5] (HepG2 cells, CCK-8, 24 h), over 50 µM; in test [6] (setting [9]), over 50 µM.

Regarding `CC(=O)C1=CCC2C3CC=C4C[C@@H](O[C@@H]5O[C@H](CO)[C@@H](O)[C@H](O)[C@H]5O[C@@H]5O[C@@H](C)[C@H](O)[C@@H](O)[C@H]5O)CC[C@]4(C)C3CC[C@]12C` (stereo partly shown) [Compound 10, spongipregnolosides A], the IC50 in test [1] (setting [8]) is over 50 µM; in test [2] (U-251, U251 cells, CCK-8, 24 h) it was over 50 µM; in test [3] (Capan-2 cells, CCK-8, 24 h), over 50 µM; in test [4] (HeLa cells, CCK-8, 24 h) it was over 50 µM; in test [5] (HepG2 cells, CCK-8, 24 h) it was over 50 µM; in test [6] (setting [9]), over 50 µM.
